Assay results as given in US6358999B2, “Use of zinc tranexamate in the treatment of diabetes” (Hamari Chemicals, LTD, priority 2000, dated 2002).

What was measured:
intestinal α-glucosidase [1] = test: Inhibition of intestinal α-glucosidase activity of streptozocin-induced diabetic mouse; type: biochemical; conditions: for Glucose (glucose production from maltose) / Glucose (glucose production from sucrose): diabetic mouse; for Glucose (glucose production from maltose): substrate maltose; for Glucose (glucose production from sucrose): substrate sucrose
Description: (§1) Intestinal tract enucleated from a normal mouse was homogenized by the conventional method after removing membrane mucosa. As a substrate, sucrose, starch, maltose or isomaltose was used. The homogenate was incubated with the substrate in the presence of a test compound (Y-4 or zinc chloride) at 37° C. for 30 minutes. The reaction mixture was centrifuged and the glucose concentration in the resulting supernatant was assayed. The glucose assay was conducted calorimetrically by adding a chromogenic reagent (0.47 mol/l of orthotoluidine, 16 mol/l of acetic acid, 10 mmol/l of boric acid) to the supernatant, heating the mixture in a boiling water bath for 8 minutes and measuring the absorbance at 635 nm. α-Glucosidase activity expressed in terms of glucose concentration/mg protein was calculated.
Example 5 was repeated using intestinal tract enucleated from a diabetic mouse induced by the treatment with streptozocin instead of intestinal tract enucleated from a normal mouse to determine the inhibitory effect of Y-4 on α-glycosidase activity. The intestinal α-glucosidase activity was higher in streptozocin-induced diabetic mouse than in normal mouse. […] The inhibitory effect of Y-4 was more remarkable in the diabetic mouse than in normal mouse.

intestinal α-glucosidase [2] = test: Inhibition of intestinal α-glucosidase activity of normal mouse (intestinal homogenate, glucose production); type: biochemical; conditions: for Glucose (glucose production from isomaltose): substrate isomaltose; for Glucose (glucose production from isomaltose) / Glucose (glucose production from maltose) / Glucose (glucose production from sucrose): 37° C., 30 minutes; for Glucose (glucose production from maltose): substrate maltose
Description: as §1

**Q.** [Cl-].[Cl-].[Zn+2] [ZnCl2, zinc chloride] was tested. Which “Glucose (glucose production from maltose)” value (intestinal α-glucosidase [1]; inhibitor 5 mM) did it give?
**A.** Its value is 28.691 ± 1.222 mg/mg protein.

**Q.** And the “Glucose (glucose production from maltose)” value (intestinal α-glucosidase [1]; inhibitor 10 mM)?
**A.** The value was 20.698 ± 0.442 mg/mg protein.

**Q.** And the “Glucose (glucose production from maltose)” value (intestinal α-glucosidase [1]; inhibitor 30 mM)?
**A.** Its value is 21.175 ± 0.105 mg/mg protein.

**Q.** And the “Glucose (glucose production from maltose)” value (intestinal α-glucosidase [1]; inhibitor 50 mM)?
**A.** Its value is 21.838 ± 0.652 mg/mg protein.

**Q.** And the “Glucose (glucose production from sucrose)” value (intestinal α-glucosidase [1]; inhibitor 5 mM)?
**A.** The value was 13.346 ± 0.411 mg/mg protein.

**Q.** And the “Glucose (glucose production from sucrose)” value (intestinal α-glucosidase [1]; inhibitor 10 mM)?
**A.** The value was 6.716 ± 0.145 mg/mg protein.

**Q.** What about the “Glucose (glucose production from sucrose)” value (intestinal α-glucosidase [1]; inhibitor 30 mM) of the same compound?
**A.** The value was 5.772 ± 0.121 mg/mg protein.

**Q.** What about the “Glucose (glucose production from sucrose)” value (intestinal α-glucosidase [1]; inhibitor 50 mM) of the same compound?
**A.** Its value is 4.973 ± 0.024 mg/mg protein.

**Q.** And the “Inhibition of intestinal α-glucosidase, all substrates” value (intestinal α-glucosidase [1]; streptozocin-induced diabetic mouse)?
**A.** Its value is “only weak inhibitory effects”.

**Q.** What about the “Inhibition of the enzymatic reaction with other substrates” value (intestinal α-glucosidase [2]; starch, maltose, isomaltose) of the same compound?
**A.** The value was “not effective”.

**Q.** And the “Glucose (glucose production from isomaltose)” value (intestinal α-glucosidase [2]; inhibitor 5 mM)?
**A.** Its value is 6.207 ± 0.230 mg/mg protein.

**Q.** What about the “Glucose (glucose production from isomaltose)” value (intestinal α-glucosidase [2]; inhibitor 10 mM) of the same compound?
**A.** The value was 5.868 ± 0.496 mg/mg protein.

**Q.** What about the “Glucose (glucose production from isomaltose)” value (intestinal α-glucosidase [2]; inhibitor 30 mM) of the same compound?
**A.** Its value is 6.510 ± 0.169 mg/mg protein.

**Q.** And the “Glucose (glucose production from isomaltose)” value (intestinal α-glucosidase [2]; inhibitor 50 mM)?
**A.** The value was 5.421 ± 0.339 mg/mg protein.

**Q.** And the “Glucose (glucose production from maltose)” value (intestinal α-glucosidase [2]; inhibitor 5 mM)?
**A.** The value was 19.917 ± 0.932 mg/mg protein.

**Q.** And the “Glucose (glucose production from maltose)” value (intestinal α-glucosidase [2]; inhibitor 10 mM)?
**A.** Its value is 18.114 ± 0.145 mg/mg protein.

**Q.** What about the “Glucose (glucose production from maltose)” value (intestinal α-glucosidase [2]; inhibitor 30 mM) of the same compound?
**A.** Its value is 15.657 ± 0.036 mg/mg protein.

**Q.** What about the “Glucose (glucose production from maltose)” value (intestinal α-glucosidase [2]; inhibitor 50 mM) of the same compound?
**A.** The value was 10.442 ± 0.290 mg/mg protein.

**Q.** What about the “Inhibition of the enzymatic reaction with sucrose” value (intestinal α-glucosidase [2]; substrate sucrose) of the same compound?
**A.** The value was “as effective as Y-4”.

**Q.** What about the “Glucose (glucose production from sucrose)” value (intestinal α-glucosidase [2]; substrate sucrose, inhibitor 5 mM) of the same compound?
**A.** Its value is 3.509 ± 0.254 mg/mg protein.

**Q.** And the “Glucose (glucose production from sucrose)” value (intestinal α-glucosidase [2]; substrate sucrose, inhibitor 10 mM)?
**A.** Its value is 1.658 ± 0.078 mg/mg protein.

**Q.** And the “Glucose (glucose production from sucrose)” value (intestinal α-glucosidase [2]; substrate sucrose, inhibitor 30 mM)?
**A.** The value was 0.714 ± 0.097 mg/mg protein.

**Q.** And the “Glucose (glucose production from sucrose)” value (intestinal α-glucosidase [2]; substrate sucrose, inhibitor 50 mM)?
**A.** Its value is 0.133 ± 0.024 mg/mg protein.
